ChEMBL document CHEMBL5634117 (Eur J Med Chem, 2023)

Columns and labels:
M14 = experiment: Growth inhibition of human M14 cells assessed as reduction in cell viability measured after 48 hrs by SRB assay; format: functional
U-251 = experiment: Growth inhibition of human U-251 cells assessed as reduction in cell viability measured after 48 hrs by SRB assay; format: functional
HCT-116 = experiment: Growth inhibition of human HCT-116 cells assessed as reduction in cell viability measured after 48 hrs by SRB assay; format: functional
NCI-H23 = experiment: Growth inhibition of human NCI-H23 cells assessed as reduction in cell viability measured after 48 hrs by SRB assay; format: functional
TK-10 = experiment: Growth inhibition of human TK-10 cells assessed as reduction in cell viability measured after 48 hrs by SRB assay; format: functional
UACC-62 = experiment: Growth inhibition of human UACC-62 cells assessed as reduction in cell viability measured after 48 hrs by SRB assay; format: functional
HCT-15 = experiment: Growth inhibition of human HCT-15 cells assessed as reduction in cell viability measured after 48 hrs by SRB assay; format: functional
Hs-578T = experiment: Growth inhibition of human Hs-578T cells assessed as reduction in cell viability measured after 48 hrs by SRB assay; format: functional
SK-OV-3 = experiment: Growth inhibition of human SK-OV-3 cells assessed as reduction in cell viability measured after 48 hrs by SRB assay; format: functional
[1] = target: T1, Mitogen-activated protein kinase 8 (Homo sapiens, UniProt P45983); experiment: Inhibition of human JNK1 at 10 uM in presence of ATP relative to control
T1 sequence (P45983 whole entry): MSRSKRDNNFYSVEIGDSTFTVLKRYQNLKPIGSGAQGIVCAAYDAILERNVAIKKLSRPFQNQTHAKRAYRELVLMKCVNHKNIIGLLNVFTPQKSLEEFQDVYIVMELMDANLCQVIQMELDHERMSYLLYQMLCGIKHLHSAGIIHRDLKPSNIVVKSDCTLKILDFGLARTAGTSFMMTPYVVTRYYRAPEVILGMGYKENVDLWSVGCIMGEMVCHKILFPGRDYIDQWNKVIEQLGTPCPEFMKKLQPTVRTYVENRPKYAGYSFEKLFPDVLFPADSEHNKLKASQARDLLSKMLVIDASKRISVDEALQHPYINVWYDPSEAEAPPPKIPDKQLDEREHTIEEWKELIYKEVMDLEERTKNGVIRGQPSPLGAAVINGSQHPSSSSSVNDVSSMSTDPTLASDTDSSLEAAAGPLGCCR

PC-3 = experiment: Growth inhibition of human PC-3 cells assessed as reduction in cell viability measured after 48 hrs by SRB assay; format: functional
IGROV-1 = experiment: Growth inhibition of human IGROV-1 cells assessed as reduction in cell viability measured after 48 hrs by SRB assay; format: functional
COLO 205 = experiment: Growth inhibition of human COLO 205 cells assessed as reduction in cell viability measured after 48 hrs by SRB assay; format: functional
BT-549 = experiment: Growth inhibition of human BT-549 cells assessed as reduction in cell viability measured after 48 hrs by SRB assay; format: functional
HCC 2998 = experiment: Growth inhibition of human HCC 2998 cells assessed as reduction in cell viability measured after 48 hrs by SRB assay; format: functional
SNB-19 = experiment: Growth inhibition of human SNB-19 cells assessed as reduction in cell viability measured after 48 hrs by SRB assay; format: functional
786-0 = experiment: Growth inhibition of human 786-0 cells assessed as reduction in cell viability measured after 48 hrs by SRB assay; format: functional
MDA-MB-231 = experiment: Growth inhibition of human MDA-MB-231 cells assessed as reduction in cell viability measured after 48 hrs by SRB assay; format: functional
OVCAR-4 = experiment: Growth inhibition of human OVCAR-4 cells assessed as reduction in cell viability measured after 48 hrs by SRB assay; format: functional
UACC-257 = experiment: Growth inhibition of human UACC-257 cells assessed as reduction in cell viability measured after 48 hrs by SRB assay; format: functional
[2] = target: Mitogen-activated protein kinase 10 (Homo sapiens, UniProt P53779); experiment: Inhibition of human JNK3 at 10 uM in presence of ATP relative to control
Chain of Mitogen-activated protein kinase 10 (P53779 whole entry): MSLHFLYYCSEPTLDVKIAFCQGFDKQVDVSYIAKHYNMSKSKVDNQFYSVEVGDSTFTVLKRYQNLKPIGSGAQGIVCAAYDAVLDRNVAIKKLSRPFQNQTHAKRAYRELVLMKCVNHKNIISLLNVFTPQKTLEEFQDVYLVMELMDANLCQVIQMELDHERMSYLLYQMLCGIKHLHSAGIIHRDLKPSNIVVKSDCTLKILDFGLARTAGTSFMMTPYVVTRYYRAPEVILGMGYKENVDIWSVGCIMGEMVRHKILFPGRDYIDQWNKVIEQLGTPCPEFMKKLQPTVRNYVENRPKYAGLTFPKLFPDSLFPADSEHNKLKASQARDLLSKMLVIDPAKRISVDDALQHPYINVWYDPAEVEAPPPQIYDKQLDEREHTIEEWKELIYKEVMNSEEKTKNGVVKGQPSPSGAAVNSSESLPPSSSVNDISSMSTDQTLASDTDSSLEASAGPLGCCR

OVCAR-8 = experiment: Growth inhibition of human OVCAR-8 cells assessed as reduction in cell viability measured after 48 hrs by SRB assay; format: functional
A498 = experiment: Growth inhibition of human A498 cells assessed as reduction in cell viability measured after 48 hrs by SRB assay; format: functional
[3] = target: T1, Mitogen-activated protein kinase 8; experiment: Inhibition of human JNK1 in presence of ATP
SR = experiment: Growth inhibition of human SR cells assessed as reduction in cell viability measured after 48 hrs by SRB assay; format: functional
EKVX = experiment: Growth inhibition of human EKVX cells assessed as reduction in cell viability measured after 48 hrs by SRB assay; format: functional
HL-60(TB) = experiment: Growth inhibition of human HL-60(TB) cells assessed as reduction in cell viability measured after 48 hrs by SRB assay; format: functional
HT-29 = experiment: Growth inhibition of human HT-29 cells assessed as reduction in cell viability measured after 48 hrs by SRB assay; format: functional
OVCAR-3 = experiment: Growth inhibition of human OVCAR-3 cells assessed as reduction in cell viability measured after 48 hrs by SRB assay; format: functional
ACHN = experiment: Growth inhibition of human ACHN cells assessed as reduction in cell viability measured after 48 hrs by SRB assay; format: functional
NCI-H322M = experiment: Growth inhibition of human NCI-H322M cells assessed as reduction in cell viability measured after 48 hrs by SRB assay; format: functional
MCF7 = experiment: Growth inhibition of human MCF7 cells assessed as reduction in cell viability measured after 48 hrs by SRB assay; format: functional
SK-MEL-28 = experiment: Growth inhibition of human SK-MEL-28 cells assessed as reduction in cell viability measured after 48 hrs by SRB assay; format: functional
NCI-H226 = experiment: Growth inhibition of human NCI-H226 cells assessed as reduction in cell viability measured after 48 hrs by SRB assay; format: functional
SK-MEL-5 = experiment: Growth inhibition of human SK-MEL-5 cells assessed as reduction in cell viability measured after 48 hrs by SRB assay; format: functional
SF-268 = experiment: Growth inhibition of human SF-268 cells assessed as reduction in cell viability measured after 48 hrs by SRB assay; format: functional
SNB-75 = experiment: Growth inhibition of human SNB-75 cells assessed as reduction in cell viability measured after 48 hrs by SRB assay; format: functional
SN12C = experiment: Growth inhibition of human SN12C cells assessed as reduction in cell viability measured after 48 hrs by SRB assay; format: functional
CAKI-1 = experiment: Growth inhibition of human CAKI-1 cells assessed as reduction in cell viability measured after 48 hrs by SRB assay; format: functional
SF-539 = experiment: Growth inhibition of human SF-539 cells assessed as reduction in cell viability measured after 48 hrs by SRB assay; format: functional
HOP-62 = experiment: Growth inhibition of human HOP-62 cells assessed as reduction in cell viability measured after 48 hrs by SRB assay; format: functional
[4] = target: Mitogen-activated protein kinase 9 (Homo sapiens, UniProt P45984); experiment: Inhibition of human JNK2 at 10 uM in presence of ATP relative to control
Chain of Mitogen-activated protein kinase 9 (P45984 whole entry, looked up): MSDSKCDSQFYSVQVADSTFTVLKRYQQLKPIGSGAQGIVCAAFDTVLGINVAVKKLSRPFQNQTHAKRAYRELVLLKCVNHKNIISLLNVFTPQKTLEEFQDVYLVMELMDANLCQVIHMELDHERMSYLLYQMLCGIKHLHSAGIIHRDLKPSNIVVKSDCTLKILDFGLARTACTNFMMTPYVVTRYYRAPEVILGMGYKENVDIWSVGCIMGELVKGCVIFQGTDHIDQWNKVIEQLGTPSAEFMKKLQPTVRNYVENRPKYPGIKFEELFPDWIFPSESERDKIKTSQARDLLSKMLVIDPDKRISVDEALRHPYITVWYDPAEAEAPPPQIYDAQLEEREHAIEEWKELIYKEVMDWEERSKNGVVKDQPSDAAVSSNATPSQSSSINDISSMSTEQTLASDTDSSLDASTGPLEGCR

CCRF-CEM = experiment: Growth inhibition of human CCRF-CEM cells assessed as reduction in cell viability measured after 48 hrs by SRB assay; format: functional
KM12 = experiment: Growth inhibition of human KM12 cells assessed as reduction in cell viability measured after 48 hrs by SRB assay; format: functional
NCI-H522 = experiment: Growth inhibition of human NCI-H522 cells assessed as reduction in cell viability measured after 48 hrs by SRB assay; format: functional
RXF 393 = experiment: Growth inhibition of human RXF 393 cells assessed as reduction in cell viability measured after 48 hrs by SRB assay; format: functional

CC(C)(C)n1cc(-c2ccnc(NCCCNS(=O)(=O)c3cccc4ccccc34)c2)c(-c2cccc(O)c2)n1
GI50 (M14): 1680 nM | GI50 (U-251): 1730 nM | GI50 (HCT-116): 1400 nM | GI50 (NCI-H23): 1780 nM | GI50 (TK-10): 2850 nM | GI50 (UACC-62): 1670 nM | GI50 (HCT-15): 1530 nM | GI50 (Hs-578T): 1890 nM | GI50 (SK-OV-3): 2630 nM | inhibition [1]: 100% | GI50 (PC-3): 1850 nM | GI50 (IGROV-1): 2140 nM | GI50 (COLO 205): 1890 nM | GI50 (BT-549): 1840 nM | GI50 (HCC 2998): 1870 nM | GI50 (SNB-19): 2630 nM | GI50 (786-0): 2090 nM | GI50 (MDA-MB-231): 2320 nM | GI50 (OVCAR-4): 1920 nM | GI50 (UACC-257): 2070 nM | inhibition [2]: 98.7% | GI50 (OVCAR-8): 2380 nM | GI50 (A498): 1370 nM | IC50 [3]: 80.3 nM | GI50 (SR): 1400 nM | GI50 (EKVX): 2130 nM | GI50 (HL-60(TB)): 2680 nM | GI50 (HT-29): 1270 nM | GI50 (OVCAR-3): 2060 nM | GI50 (ACHN): 2700 nM | GI50 (NCI-H322M): 2660 nM | GI50 (MCF7): 1910 nM | GI50 (SK-MEL-28): 1670 nM | GI50 (NCI-H226): 1970 nM | GI50 (SK-MEL-5): 1520 nM | GI50 (SF-268): 2770 nM | GI50 (SNB-75): 1880 nM | GI50 (SN12C): 1730 nM | GI50 (CAKI-1): 2490 nM | GI50 (SF-539): 1830 nM | GI50 (HOP-62): 1830 nM | inhibition [4]: 99.1% | GI50 (CCRF-CEM): 2440 nM | GI50 (KM12): 2340 nM | GI50 (NCI-H522): 1990 nM | GI50 (RXF 393): 1520 nM

CC(C)(C)n1cc(-c2ccnc(NCCCNS(=O)(=O)c3ccc(C(F)(F)F)cc3)c2)c(-c2cccc(O)c2)n1
GI50 (M14): 2000 nM | GI50 (U-251): 1710 nM | GI50 (HCT-116): 1550 nM | GI50 (NCI-H23): 1670 nM | GI50 (TK-10): 2310 nM | GI50 (UACC-62): 1690 nM | GI50 (HCT-15): 1470 nM | GI50 (Hs-578T): 1980 nM | GI50 (SK-OV-3): 2690 nM | inhibition [1]: 99.5% | GI50 (PC-3): 1640 nM | GI50 (IGROV-1): 1800 nM | GI50 (COLO 205): 1950 nM | GI50 (BT-549): 1610 nM | GI50 (HCC 2998): 1820 nM | GI50 (SNB-19): 1980 nM | GI50 (786-0): 1800 nM | GI50 (MDA-MB-231): 2130 nM | GI50 (OVCAR-4): 2290 nM | GI50 (UACC-257): 2070 nM | inhibition [2]: 98.6% | GI50 (OVCAR-8): 2460 nM | GI50 (A498): 1540 nM | IC50 [3]: 142 nM | GI50 (SR): 2210 nM | GI50 (EKVX): 1820 nM | GI50 (HL-60(TB)): 2810 nM | GI50 (HT-29): 1450 nM | GI50 (OVCAR-3): 1960 nM | GI50 (ACHN): 1880 nM | GI50 (NCI-H322M): 2070 nM | GI50 (MCF7): 1780 nM | GI50 (SK-MEL-28): 1750 nM | GI50 (NCI-H226): 2350 nM | GI50 (SK-MEL-5): 1600 nM | GI50 (SF-268): 1750 nM | GI50 (SNB-75): 1940 nM | GI50 (SN12C): 1610 nM | GI50 (CAKI-1): 1990 nM | GI50 (SF-539): 1650 nM | GI50 (HOP-62): 1930 nM | inhibition [4]: 98.7% | GI50 (CCRF-CEM): 2980 nM | GI50 (KM12): 2150 nM | GI50 (NCI-H522): 1990 nM | GI50 (RXF 393): 1460 nM
